Measurements: ChEMBL document CHEMBL4828735, “Discovery of N-((3S,4S)-4-(3,4-Difluorophenyl)piperidin-3-yl)-2-fluoro-4-(1-methyl-1H-pyrazol-5-yl)benzamide (Hu7691), a Potent and Selective Akt Inhibitor That Enables Decrease of Cutaneous Toxicity” (J Med Chem, 2021)

Columns and labels:
786-0 = experiment: Antiproliferative activity against human 786-0 cells assessed as inhibition of cell growth incubated for 72 hrs by SRB assay; type: functional, cell-based; conditions: 786-0, 72 h
KHOS/NP = experiment: Antiproliferative activity against human KHOS cells assessed as inhibition of cell growth incubated for 72 hrs by SRB assay; type: functional, cell-based
[1] = target: RAC-alpha serine/threonine-protein kinase (Homo sapiens, UniProt P31749); experiment: Inhibition of N-terminal GST-tagged human AKT1 (104 to 408 residues) expressed in baculovirus infected Sf21 cells incubated for 1 hr in presence of ATP by mobility shift assay
Chain of RAC-alpha serine/threonine-protein kinase (P31749 whole entry, the tested form may be a part): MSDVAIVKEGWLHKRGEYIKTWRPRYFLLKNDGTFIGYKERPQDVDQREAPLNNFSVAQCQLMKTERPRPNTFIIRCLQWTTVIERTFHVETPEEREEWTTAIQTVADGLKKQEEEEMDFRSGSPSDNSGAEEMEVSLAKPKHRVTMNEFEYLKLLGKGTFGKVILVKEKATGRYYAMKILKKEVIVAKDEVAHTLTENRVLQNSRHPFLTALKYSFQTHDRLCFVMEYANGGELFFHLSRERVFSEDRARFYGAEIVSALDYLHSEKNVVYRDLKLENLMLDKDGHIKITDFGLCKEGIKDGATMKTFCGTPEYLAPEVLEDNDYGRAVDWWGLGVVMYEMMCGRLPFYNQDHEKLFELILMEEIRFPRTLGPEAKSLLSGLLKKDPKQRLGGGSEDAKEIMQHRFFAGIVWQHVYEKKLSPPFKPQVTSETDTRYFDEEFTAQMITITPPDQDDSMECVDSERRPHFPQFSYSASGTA

HGC-27 = experiment: Antiproliferative activity against human HGC-27 cells assessed as inhibition of cell growth incubated for 72 hrs by SRB assay; type: functional, cell-based; conditions: HGC-27, 72 h
hERG (KCNH2) = hERG (KCNH2) (Homo sapiens, UniProt Q12809); experiment: Inhibition of human ERG expressed in HEK293 cells at 3 uM by whole cell patch clamp method relative to control; type: cell-based; conditions: HEK293 cells expressing hERG
Chain of hERG (KCNH2) (Q12809 whole entry): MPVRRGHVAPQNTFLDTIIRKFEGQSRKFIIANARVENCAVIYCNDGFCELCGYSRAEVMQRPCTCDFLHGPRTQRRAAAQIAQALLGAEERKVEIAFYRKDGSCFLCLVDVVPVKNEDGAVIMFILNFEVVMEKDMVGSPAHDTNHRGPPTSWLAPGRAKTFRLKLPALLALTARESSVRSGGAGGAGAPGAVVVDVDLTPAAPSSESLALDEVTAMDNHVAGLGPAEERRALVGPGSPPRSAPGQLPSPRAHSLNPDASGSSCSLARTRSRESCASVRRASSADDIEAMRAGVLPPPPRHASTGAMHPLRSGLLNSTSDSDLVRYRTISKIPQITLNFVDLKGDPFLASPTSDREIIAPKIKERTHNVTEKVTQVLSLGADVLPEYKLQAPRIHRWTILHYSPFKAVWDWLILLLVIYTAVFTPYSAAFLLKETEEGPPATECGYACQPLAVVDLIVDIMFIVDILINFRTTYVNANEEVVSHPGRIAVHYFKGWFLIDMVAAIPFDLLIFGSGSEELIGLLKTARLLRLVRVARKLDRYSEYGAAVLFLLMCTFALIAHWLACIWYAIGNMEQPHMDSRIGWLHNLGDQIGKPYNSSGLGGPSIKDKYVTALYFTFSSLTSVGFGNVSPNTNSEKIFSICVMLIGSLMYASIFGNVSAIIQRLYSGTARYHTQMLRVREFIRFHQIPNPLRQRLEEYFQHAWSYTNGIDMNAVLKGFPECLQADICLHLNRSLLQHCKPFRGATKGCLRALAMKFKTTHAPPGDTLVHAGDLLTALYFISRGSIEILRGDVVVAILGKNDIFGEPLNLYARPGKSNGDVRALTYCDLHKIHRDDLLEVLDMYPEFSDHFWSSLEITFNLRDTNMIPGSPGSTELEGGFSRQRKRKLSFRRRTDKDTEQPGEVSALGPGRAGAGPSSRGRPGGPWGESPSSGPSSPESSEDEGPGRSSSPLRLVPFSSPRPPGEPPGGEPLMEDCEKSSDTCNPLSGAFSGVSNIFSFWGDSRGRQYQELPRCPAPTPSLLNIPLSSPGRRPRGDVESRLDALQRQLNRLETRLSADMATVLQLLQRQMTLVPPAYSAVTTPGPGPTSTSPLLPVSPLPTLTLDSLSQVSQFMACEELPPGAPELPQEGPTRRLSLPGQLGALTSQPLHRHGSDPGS

HaCaT = experiment: Antiproliferative activity against human HaCaT cells assessed as inhibition of cell growth incubated for 72 hrs by SRB assay; type: cell-based

Structure (SMILES)	IC50 (786-0) [µM]	IC50 (KHOS/NP) [µM]	IC50 [1] [µM]	IC50 (HGC-27) [µM]	inhibition at 3 µM (hERG (KCNH2)) [%]	IC50 (HaCaT) [µM]
CCn1nccc1-c1ccc(C(=O)N[C@@H]2CNCC[C@H]2c2ccc(F)c(F)c2)c(F)c1	5.2	5.46	0.176	3.57		
Cn1ncc(Cl)c1-c1cc(F)c(C(=O)N[C@@H]2CNCC[C@H]2c2ccc(F)c(F)c2)c(F)c1	4.28	4.46	0.0971	4.86		
Cn1ncc(Br)c1-c1cc(F)c(C(=O)N[C@@H]2CNCC[C@H]2c2ccc(F)c(F)c2)c(F)c1	3.56	5.01	0.0957	2.9		
Cn1ncc(Cl)c1-c1cc(F)c(C(=O)N[C@@H]2CNCC[C@H]2c2ccc(F)c(F)c2)c(Cl)c1	3.17	3.67	0.142	3.06		
Cn1nccc1-c1ccc(C(=O)N[C@@H]2CNCC[C@H]2c2ccc(F)c(F)c2)c(Cl)c1	4.07	11.7	0.024	1.4		
Cn1nccc1-c1cc(F)c(C(=O)N[C@@H]2CNCC[C@H]2c2ccc(F)cc2)cc1F	7.81	17.6	0.0353	3.36		
Cn1nccc1-c1ccc(C(=O)N[C@@H]2CNCC[C@H]2c2cc(F)cc(F)c2)cc1F	1.01	7.27	0.0018	0.15	26.4	
Cn1nccc1-c1cc(F)c(C(=O)N[C@@H]2CNCC[C@H]2c2ccc(F)c(F)c2)cc1F	5.05	18.4	0.0092	1.45	27.2	
Cn1nccc1-c1ccc(C(=O)N[C@@H]2CNCC[C@H]2c2cc(F)cc(F)c2)c(F)c1	2.22	17.1	0.0046	0.51	6.4	
Cn1nccc1-c1ccc(C(=O)N[C@@H]2CNCC[C@H]2c2ccc(F)c(F)c2)cc1						5.44
